From patent US10851065B2 (Eisai R&D Management Co., Ltd., priority 2015, dated 2020)

Tests used:
[1] = system: MCF7-Y537S cells (MCF7 ER-alpha Y537S mutant); experiment: In vitro proliferation (viability) assay, CellTiter-Glo, MCF7-Y537S cells; assay type: cell-based; settings: Homo sapiens; MCF7-Y537S cells, 6 days, CTG vs day 0; mean ± SD-type spread (n); read-out: GI50 MUT (Y537S)
Method: (§1) MCF7 BUS cells (Coser, et al., (2003) PNAS 100(24): 13994-13999) were maintained in Dulbecco's Modified Eagle Medium supplemented with 10% FBS, 4 mM L-glutamine and 1× non-essential amino acids. Lenti-X 293T cells (Clontech, Cat #632180) were routinely cultured in Dulbecco's Modified Eagle Medium supplemented with 10% FBS.
(§2) The QuikChange II XL Site-Directed Mutagenesis Kit (Agilent Technologies, Cat #200523) was used to generate Y537S, Y537C, Y537N and D538G mutations within the ERα exon 8. Wild-type ESR1 cDNA (GeneCopoeia Inc., Cat #GC-A0322, accession no. NM 000125) was used as a template with the following mutagenesis primers (where the underlined nucleotides represent site mutations); Y537S: F-AAGAACGTGGTGCCCCTCTCTGACCTGCTGCTGGAGATG (SEQ ID NO: 1), R-CATCTCCAGCAGCAGGTCAGAGAGGGGCACCACGTTCTT (SEQ ID NO: 2); Y537N: F-AAGAACGTGGTGCCCCTCAATGACCTGCTGCTGGAGATG (SEQ ID NO: 3), R-CATCTCCAGCAGCAGGTCATTGAGGGGCACCACGTTCTT (SEQ ID NO: 4); Y537C: F-AAGAACGTGGTGCCCCTCTGTGACCTGCTGCTGGAGATG (SEQ ID NO: 5), R-CATCTCCAGCAGCAGGTCACAGAGGGGCACCACGTTCTT (SEQ ID NO: 6); D538G: F-AACGTGGTGCCCCTCTATGGCCTGCTGCTGGAGATGCTG (SEQ ID NO: 7), R-CAGCATCTCCAGCAGCAGGCCATAGAGGGGCACCACGTT (SEQ ID NO: 8). WT and mutant ESR1 cDNAs were cloned into the designation lentiviral vector pLenti6.3/V5-Dest (Invitrogen, Cat #V533-06). To make lentivirus, DNAs (WT and mutant ESR1) were co-transfected with packaging plasmids into Lenti-X 293T cells using TransIT (Mirus, Cat #MIR 2700). 48 h post-transfection, virus containing media was filtered and added to MCF7 cells in the presence of 8 µg/ml polybrene overnight. Two days following infection, cells were placed under selection with 10 μg/ml blasticidin for 2 weeks for stable expression.
(§3) MCF7-WT and -Y537S cells were seeded at 1500 cells/well in black-walled 96-well plates (assay plates, Costar, Cat #3904). In parallel, cells were also seeded in a separate 96-well plate (8 wells/cell line, control plate) for which a CTG (CellTiter-Glo® Luminescent Viability Assay, Promega, Cat #G7572) was measured the following day (day 0 reading). The day 0 reading was used for the GI50 calculation at the termination of the experiment. The day following seeding, compounds were added to assay plates. Briefly, a 1:4 serial dilution was prepared in DMSO at 200× final concentration for a total of 10 concentrations (9 dilutions containing compound and one is DMSO only). Serially diluted compounds were pipetted into medium to prepare a compound-medium mix at 10× final concentration. 10 μl of compound-medium mix was added to MCF7-WT and -Y537S cells at 3 wells/concentration (triplicate for each concentration). On day 3, media/compound was removed and replaced with fresh media/compound as described above. On day 6, CTG was measured and compared to day 0 readings from control plate to assess GI50.

[2] = system: MCF7-WT cells (MCF7 ER-alpha wildtype); experiment: In vitro proliferation (viability) assay, CellTiter-Glo, MCF7-WT cells; assay type: cell-based; settings: Homo sapiens; MCF7-WT cells, 6 days, CTG vs day 0; mean ± SD-type spread (n); read-out: GI50 WT
Method: as §1, §2, §3

Structure (SMILES) | GI50 [1] [nM] | GI50 [2] [nM]
CC/C(=C(/c1ccc(OCCNC/C=C/C(=O)N(C)C)cc1)c1cc(F)c2[nH]nc(F)c2c1)c1ccccc1 [Compound 79, (E)-4-((2-(4-((E)-1-(3,7-difluoro-1H-indazol-5-yl)-2-phenylbut-1-en-1-yl)phenoxy)ethyl)amino)-N,N-dimethylbut-2-enamide] | 92.5 | 6.9
CC/C(=C(/c1ccc(OCCNC/C=C/C(=O)N(C)C)cc1)c1ccc2[nH]ncc2c1)c1cc(F)cc(F)c1 [Compound 5, (E)-4-((2-(4-((E)-2-(3,5-difluorophenyl)-1-(1H-indazol-5-yl)but-1-en-1-yl)phenoxy)ethyl)amino)-N,N-dimethylbut-2-enamide] | 81.4 ± 45.8 | 8.44 ± 3.87
CC/C(=C(/c1ccc(OCCNC/C=C/C(=O)N(C)C)cc1)c1ccc2[nH]nc(F)c2c1)c1ccccc1Cl [Compound 73, (E)-4-((2-(4-((E)-2-(2-chlorophenyl)-1-(3-fluoro-1H-indazol-5-yl)but-1-en-1-yl)phenoxy)ethyl)amino)-N,N-dimethylbut-2-enamide] | 40.5 | 1.7
CN(CCO)C(=O)/C=C/CNCCOc1ccc(/C(=C(\c2ccccc2)C2CCC2)c2ccc3[nH]ncc3c2)cc1 [Compound 41, (E)-4-((2-(4-((E)-2-cyclobutyl-1-(1H-indazol-5-yl)-2-phenylvinyl)phenoxy)ethyl)amino)-N-(2-hydroxyethyl)-N-methylbut-2-enamide] | 66.3 | 3.84
CC/C(=C(/c1ccc(OCCNC/C=C/C(=O)N(C)C)cc1)c1ccc2[nH]ncc2c1)c1ccc(F)c(F)c1 [Compound 6, (E)-4-((2-(4-((E)-2-(3,4-difluorophenyl)-1-(1H-indazol-5-yl)but-1-en-1-yl)phenoxy)ethyl)amino)-N,N-dimethylbut-2-enamide] | 111 ± 124 | 2.93 ± 2.83
CC/C(=C(/c1ccc(OCCNC/C=C/C(=O)N(C)C)cc1)c1ccc2[nH]nc(F)c2c1)c1cccnc1 [Compound 51, (E)-4-((2-(4-((E)-1-(3-fluoro-1H-indazol-5-yl)-2-(pyridin-3-yl)but-1-en-1-yl)phenoxy)ethyl)amino)-N,N-dimethylbut-2-enamide] | 347 | 20.9
CC/C(=C(/c1ccc(OCCNC/C=C/C(=O)N(C)C)cc1)c1ccc2[nH]nc(F)c2c1)c1ccccc1F [Compound 43, (E)-4-((2-(4-((E)-1-(3-fluoro-1H-indazol-5-yl)-2-(2-fluorophenyl)but-1-en-1-yl)phenoxy)ethyl)amino)-N,N-dimethylbut-2-enamide] | 47.3 | 1.94
CC/C(=C(/c1ccc(OCCNC(C)/C=C/C(=O)N(C)C)cc1)c1ccc2[nH]ncc2c1)c1ccccc1 (stereo not shown) [Compound 89, (E)-4-((2-(4-((E)-1-(1H-indazol-5-yl)-2-phenylbut-1-en-1-yl)phenoxy)ethyl)amino)-N,N-dimethylpent-2-enamide] | 35 | 2.8
CC/C(=C(/c1ccc(OCCCNC/C=C/C(=O)N(C)C)cc1)c1ccc2[nH]ncc2c1)c1ccccc1 [Compound 95, (E)-4-((3-(4-((E)-1-(1H-indazol-5-yl)-2-phenylbut-1-en-1-yl)phenoxy)propyl)amino)-N,N-dimethylbut-2-enamide] | 32.4 | 1.8
C/C(=C(/c1ccc(OCCNC/C=C/C(=O)N(C)C)cc1)c1ccc2[nH]ncc2c1)c1ccccc1 [Compound 54, (E)-4-((2-(4-((E)-1-(1H-indazol-5-yl)-2-phenylprop-1-en-1-yl)phenoxy)ethyl)amino)-N,N-dimethylbut-2-enamide] | 160 ± 39.6 | 7.97 ± 1.65
CC/C(=C(/c1cnc(OCCNC/C=C/C(=O)N(C)C)nc1)c1ccc2[nH]ncc2c1)c1ccccc1 [Compound 38, (E)-4-((2-((5-((Z)-1-(1H-indazol-5-yl)-2-phenylbut-1-en-1-yl)pyrimidin-2-yl)oxy)ethyl)amino)-N,N-dimethylbut-2-enamide] | 159 ± 128 | 8.23 ± 5.32

The remaining lines, values ahead:

GI50 [1] [nM] | GI50 [2] [nM] | Structure (SMILES)
22.3 | 1.59 | C#CCN(C)C(=O)/C=C/CNCCOc1ccc(/C(=C(/CC)c2ccccc2)c2ccc3[nH]ncc3c2)cc1 [Compound 8, (E)-4-((2-(4-((E)-1-(1H-indazol-5-yl)-2-phenylbut-1-en-1-yl)phenoxy)ethyl)amino)-N-methyl-N-(prop-2-yn-1-yl)but-2-enamide]
1.3 | 0.3 | CN(C)C(=O)/C=C/CNCCOc1ccc(/C(=C(/CC(F)(F)F)c2ccncc2F)c2ccc3[nH]nc(F)c3c2)cn1 [Compound 62, (E)-N,N-dimethyl-4-((2-((5-((Z)-4,4,4-trifluoro-1-(3-fluoro-1H-indazol-5-yl)-2-(3-fluoropyridin-4-yl)but-1-en-1-yl)pyridin-2-yl)oxy)ethyl)amino)but-2-enamide]
21.2 ± 17.2 | 2.22 ± 2.34 | CC/C(=C(/c1ccc(OCCNC/C=C/C(=O)N2CCC2)cc1)c1ccc2[nH]ncc2c1)c1ccccc1 [Compound 10, (E)-4-((2-(4-((E)-1-(1H-indazol-5-yl)-2-phenylbut-1-en-1-yl)phenoxy)ethyl)amino)-1-(azetidin-1-yl)but-2-en-1-one]
17.9 ± 4.5 | 1.3 ± 0.4 | CC/C(=C(/c1ccc(OCCNC/C=C/C(=O)N(C)C)nc1)c1ccc2[nH]nc(F)c2c1)c1ccc(F)cc1Cl [Compound 58, (E)-4-((2-((5-((Z)-2-(2-chloro-4-fluorophenyl)-1-(3-fluoro-1H-indazol-5-yl)but-1-en-1-yl)pyridin-2-yl)oxy)ethyl)amino)-N,N-dimethylbut-2-enamide]
32.2 | 1.2 | CC/C(=C(/c1ccc(OCCNC/C=C/C(=O)N(C)C)cc1)c1cc(F)c2[nH]ncc2c1)c1ccccc1 [Compound 76, (E)-4-((2-(4-((E)-1-(7-fluoro-1H-indazol-5-yl)-2-phenylbut-1-en-1-yl)phenoxy)ethyl)amino)-N,N-dimethylbut-2-enamide]
25 ± 21.9 | 4.96 ± 3.1 | CC/C(=C(/c1ccc(OCCNC/C=C/C(=O)N(C)C)cc1)c1ccc2[nH]ncc2c1)c1ccccc1C [Compound 36, (E)-4-((2-(4-((E)-1-(1H-indazol-5-yl)-2-(o-tolyl)but-1-en-1-yl)phenoxy)ethyl)amino)-N,N-dimethylbut-2-enamide]
21.4 ± 15 | 1.63 ± 1.41 | CC/C(=C(/c1ccc(OCCNC/C=C/C(=O)N(C)CCO)cc1)c1ccc2[nH]ncc2c1)c1ccccc1 [Compound 18, (E)-4-((2-(4-((E)-1-(1H-indazol-5-yl)-2-phenylbut-1-en-1-yl)phenoxy)ethyl)amino)-N-(2-hydroxyethyl)-N-methylbut-2-enamide]
25.5 ± 13.8 | 1.84 ± 1.09 | CC/C(=C(/c1ccc(OCCNC/C=C/C(=O)N2CCOCC2)cc1)c1ccc2[nH]ncc2c1)c1ccccc1 [Compound 15, (E)-4-((2-(4-((E)-1-(1H-indazol-5-yl)-2-phenylbut-1-en-1-yl)phenoxy)ethyl)amino)-1-morpholinobut-2-en-1-one]
29.3 | 2.5 | CC/C(=C(/c1ccc(OCCNC/C=C/C(=O)N(C)C)cc1)c1ccc2[nH]ncc2c1)c1ccccc1OC(F)(F)F [Compound 33, (E)-4-((2-(4-((E)-1-(1H-indazol-5-yl)-2-(2-(trifluoro-methoxy)phenyl)but-1-en-1-yl)phenoxy)ethyl)amino)-N,N-dimethylbut-2-enamide]
